# Source: US20250041303A1, “COMBINATION THERAPY FOR CANCER TREATMENT” (INSTITUTE FOR CANCER RESEARCH D/B/A THE RESEARCH INSTITUTE …, priority 2021, published 2025)
# How the values were obtained:
# CDK9 [1] = biological target: T1, CDK9 (Homo sapiens, UniProt P50750); experiment: Western blot of CDK9 degradation in DLD-1 cells; format: cell-based; parameters: endogenous in cells; host or cells: DLD-1; conditions: 4 hours
# Protocol: (§2) Samples were harvested in MIB lysis buffer (50 mM HEPES (pH 7.5), 0.5% Triton X-100, 150 mM NaCl, 1 mM EDTA, 1 mM EGTA, 10 mM sodium fluoride, 2.5 mM sodium orthovanadate, 1× protease inhibitor cocktail (Roche), and 1% each of phosphatase inhibitor cocktails 2 and 3 (Sigma)). Particulate was removed by centrifugation of lysates at 21,000 rpm for 15 minutes at 4° C. Lysates were subjected to SDS-PAGE chromatography and transferred to PVDF membranes before western blotting with primary antibodies. […] Secondary HRP-anti-rabbit and HRP-anti-mouse were obtained from ThermoFisher Scientific. SuperSignal West Pico and Femto Chemiluminescent Substrates (Thermo) were used to visualize blots.
# [2] = tested on: HCT-15, DLD-1 and CAKI-1 cells (MDR1 overexpressing); experiment: CellTiter-Glo cell viability of MDR1 overexpressing vs low MDR1 cancer cell lines; conditions: HCT-15, DLD-1, CAKI-1 vs A1847, SUM159, MOLT4; escalating doses, 5 days
# CDK9 [3] = biological target: T1, CDK9; experiment: Western blot of CDK9 degradation, A1847 parental vs Thal-R cells; format: cell-based
# Protocol: as §2
# [4] = tested on: A1847 and SUM159 parental and degrader-resistant cells; experiment: CellTiter-Glo cell viability, parental vs degrader-resistant cells; conditions: for sensitivity of degrader-resistant cells vs parental cells (cell viability): increasing concentrations, A1847 dBET6-R, Thal-R, MZ1-R and SUM159 MZ1-R
# [5] = tested on: A1847 Parental or dBET6-R cells; experiment: Western blot for cross-resistance to other PROTACs; format: cell-based; conditions: A1847 dBET6-R vs parental; 1 μM, 24 hours
# MDR1 (ABCB1) = experiment: Single-run proteomics (LC-MS/MS, label-free quantitation) of degrader-resistant cells; format: cell-based, human; conditions: A1847 cells chronically exposed to the degrader (degrader-R) vs parental
# Protocol: To determine changes in cells chronically exposed to BET or CDK9 PROTACs, we performed single-run proteome analysis as previously described (Lai et al., Front. Oncol., 2020, 10, 2336). Briefly, WT or PROTAC-R cells were lysed in 50 mM HEPES pH 8.0+4% SDS, and 100 μg of proteins were digested using LysC and trypsin. Digested peptides were isolated using C-18 and PGC columns, then dried and cleaned with ethyl acetate. Three […] peptides were analyzed using LC-MS/MS. MaxQuant normalized LFQ values were imported into Perseus software (1.6.2.3) and filtered in the following manner: kinases identified by site only were removed, reverse, or potential contaminant were removed then filtered for kinases identified by >1 unique peptide. Protein LFQ values were log 2 transformed, filtered for a minimum valid number of 3, normalized using Z-scores, annotated, and subjected to a Student's t-test with comparing […]. […]
# Proteolytic peptides were resuspended in 0.1% formic acid and separated with a Thermo Scientific RSLC nano Ultimate 3000 LC on a Thermo Scientific Easy-Spray C18 PepMap 75 μm×50 cm C-18 2 μm column. […] Eluted peptides were analyzed by Thermo Scientific Q Exactive or Q Exactive plus mass spectrometers utilizing a top 15 methodology in which the 15 most intense peptide precursor ions were subjected to fragmentation. […]
# Raw data analysis of LFQ experiments was performed using MaxQuant software 1.6.1.0 and searched using Andromeda 1.5.6.0 against the Swiss-Prot human protein database (downloaded on Apr. 24, 2019, 20402 entries). […] LFQ quantitation was performed using MaxQuant with the following parameters; LFQ minimum ratio count: Global parameters for protein quantitation were as follows: label minimum ratio count: 1, peptides used for quantitation: unique, only use modified proteins selected and with normalized average ratio estimation selected. Match between runs was employed for LFQ quantitation and the significance threshold of the ion score was calculated based on a false discovery rate of <1%.
# [6] = tested on: OVCAR3, HCT116, and MOLT4 cells; experiment: CellTiter-Glo cell viability, parental vs MZ1 chronically exposed cells; conditions: MZ1-R OVCAR3 and HCT116 vs parental
# SW1463 cells = experiment: CellTiter-Glo viability with Bliss drug synergy analysis in SW1463 cells; format: cell-based
# KRASG12C = biological target: T2, KRASG12C (Homo sapiens, UniProt P01116, G12C); experiment: Western blot of KRASG12C and effector signaling in SW1463 cells; format: cell-based; conditions: for PROTAC-mediated degradation of KRASG12C on combining with LC-2 / phosphorylation of MEK and ERK on combining with LC-2: lapatinib 5 μM or tariquidar 0.01 μM
# T2 construct: endogenous in cells; host or cells: SW1463
# Protocol: as §2
# MDR1 [7] = biological target: T3, MDR1 (Homo sapiens, UniProt P08183); experiment: Rhodamine 123 efflux assay in degrader-resistant cells; format: cell-based; parameters: endogenous in cells; host or cells: A1847 parental, dBET6-R, Thal-R; SUM159 parental, MZ1-R
# T3 sequence (P08183 whole entry): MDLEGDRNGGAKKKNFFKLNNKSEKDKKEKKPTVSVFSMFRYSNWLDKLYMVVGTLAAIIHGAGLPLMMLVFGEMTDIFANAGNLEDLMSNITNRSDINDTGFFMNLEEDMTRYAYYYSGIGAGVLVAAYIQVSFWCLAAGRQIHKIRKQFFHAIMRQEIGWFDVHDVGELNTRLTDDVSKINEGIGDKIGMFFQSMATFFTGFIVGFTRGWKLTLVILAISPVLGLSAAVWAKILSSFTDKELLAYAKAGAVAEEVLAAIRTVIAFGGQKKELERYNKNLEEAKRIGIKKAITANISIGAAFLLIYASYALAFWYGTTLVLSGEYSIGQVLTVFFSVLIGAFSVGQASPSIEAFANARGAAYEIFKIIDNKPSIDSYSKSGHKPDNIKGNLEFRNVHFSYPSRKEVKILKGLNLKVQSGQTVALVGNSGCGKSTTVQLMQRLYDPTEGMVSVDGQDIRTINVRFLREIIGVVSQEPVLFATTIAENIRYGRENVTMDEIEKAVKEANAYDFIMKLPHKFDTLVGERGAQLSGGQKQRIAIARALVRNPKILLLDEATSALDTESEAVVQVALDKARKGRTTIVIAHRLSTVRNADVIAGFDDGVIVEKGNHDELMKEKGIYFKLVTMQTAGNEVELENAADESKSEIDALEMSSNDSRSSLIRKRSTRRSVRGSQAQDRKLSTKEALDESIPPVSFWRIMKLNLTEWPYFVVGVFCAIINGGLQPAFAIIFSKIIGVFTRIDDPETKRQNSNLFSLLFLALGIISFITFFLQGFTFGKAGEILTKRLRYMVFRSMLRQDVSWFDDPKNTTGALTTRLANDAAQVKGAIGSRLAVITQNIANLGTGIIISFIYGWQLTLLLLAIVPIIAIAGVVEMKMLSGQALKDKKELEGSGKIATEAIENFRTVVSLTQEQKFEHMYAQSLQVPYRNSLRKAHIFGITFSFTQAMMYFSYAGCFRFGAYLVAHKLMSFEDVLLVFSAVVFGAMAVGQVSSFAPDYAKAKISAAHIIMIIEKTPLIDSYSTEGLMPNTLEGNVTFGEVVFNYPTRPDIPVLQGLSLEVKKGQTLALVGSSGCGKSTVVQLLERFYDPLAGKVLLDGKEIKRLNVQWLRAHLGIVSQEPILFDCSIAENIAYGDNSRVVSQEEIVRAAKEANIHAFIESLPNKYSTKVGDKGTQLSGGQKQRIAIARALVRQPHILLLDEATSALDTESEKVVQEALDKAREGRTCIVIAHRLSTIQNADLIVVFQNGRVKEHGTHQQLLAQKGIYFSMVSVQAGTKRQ
# Protocol: (§1) Efflux assay was performed according to manufacturer's protocol (Millipore Sigma #ECM910). Cells were resuspended in cold efflux buffer and incubated with Rhodamine 123 for 1 hour on ice. Cells were centrifuged and treated in warm efflux buffer with DMSO or drug for 30-60 minutes, washed with cold PBS, and effluxed dye was quantified with a plate reader at an excitation wavelength of 485 nm and an emission wavelength of 530 nm.
# A1847 or SUM159 cells = experiment: Colony formation assay (14 days, crystal violet); conditions: SUM159 cells expressing Flag-MDR1, MZ1 0.1 μM, with or without tariquidar 0.1 μM
# SW837 cells = experiment: CellTiter-Glo viability with Bliss drug synergy analysis in SW837 cells
# [8] = tested on: BET proteins (BRD2, BRD3 or BRD4); experiment: Western blot of BET protein degradation, parental vs degrader-resistant cells; format: cell-based
# Protocol: as §2
# DLD-1 cells = experiment: Colony formation assay (14 days) in DLD-1 cells
# MDR1 [9] = biological target: T3, MDR1; experiment: Rhodamine 123 efflux assay in LS513 cells; format: cell-based; parameters: endogenous in cells; conditions: 2 μM
# Protocol: as §1, with “Cells were resuspended in cold efflux buffer and incubated with Rhodamine 123 for 1 hour on ice.” left out
# [10] = tested on: ERBB3 and downstream AKT signaling; experiment: Western blot of MEKi-induced ERBB3/AKT signaling in LS513 cells; format: cell-based; parameters: dose or concentration left out as unconfirmed; conditions: LS513, 48 hours
# Protocol: as §2
# MDR1 [11] = biological target: T3, MDR1; experiment: Rhodamine 123 efflux assay in DLD-1 cells; format: cell-based; parameters: endogenous in cells; conditions: 2 μM
# Protocol: as §1
# [12] = tested on: A1847 dBET6-R or Thal-R cells; experiment: Apoptosis by western blot in degrader-resistant A1847 cells; format: cell-based; conditions: 2 μM, 4 hours
# Protocol: as §2
# BRD4 (BET proteins) = biological target: T4, BRD4 (BET proteins) (Homo sapiens, UniProt O60885); experiment: Western blot of BET protein/BRD4 degradation in DLD-1 cells; format: cell-based; conditions: 4 hours
# T4 construct: endogenous in cells; host or cells: DLD-1
# Protocol: as §2
# LS513 xenografts = experiment: Tumor xenograft experiment; format: in vivo, nude mice; conditions: MS934 50 mg/kg intraperitoneal daily, lapatinib 100 mg/kg oral gavage daily, or the combination; two weeks
# Protocol: Animal studies were conducted in accordance with the guidelines set forth by the Institutional Animal Care and Use Committee. 1×10^6 LS513 cells were prepared in growth factor reduced Matrigel (Corning) 1:1 and injected into the right flank of 6- to 8-weeks old nude mice. […] For in vivo studies, MS934 was resuspended in 5% N-methyl-2-pyrrolidinone (NMP), 5% Kolliphor HS-15 (sigma) and 90% saline; and delivered by intraperitoneal injection (daily). […] Tumor volumes were evaluated every two days using a caliper and the volume was calculated applying the following formula: [(width)^2×(length)]/2.
# [13] = tested on: SW1463 or SW837 KRASG12C cells; experiment: Colony formation assay (14 days) in KRASG12C CRC cells; conditions: 1 μM
# T1 sequence (P50750 whole entry): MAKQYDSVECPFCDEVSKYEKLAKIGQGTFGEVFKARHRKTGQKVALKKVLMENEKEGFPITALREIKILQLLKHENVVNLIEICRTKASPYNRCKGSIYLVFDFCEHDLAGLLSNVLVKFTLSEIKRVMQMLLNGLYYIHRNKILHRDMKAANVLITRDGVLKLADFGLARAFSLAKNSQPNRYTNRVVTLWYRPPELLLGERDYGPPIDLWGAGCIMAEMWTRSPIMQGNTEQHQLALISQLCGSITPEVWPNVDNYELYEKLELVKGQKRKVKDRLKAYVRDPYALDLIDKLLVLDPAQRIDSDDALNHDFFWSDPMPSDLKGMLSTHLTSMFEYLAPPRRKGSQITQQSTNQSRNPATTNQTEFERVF
# T1 sequence (O60563 whole entry partner): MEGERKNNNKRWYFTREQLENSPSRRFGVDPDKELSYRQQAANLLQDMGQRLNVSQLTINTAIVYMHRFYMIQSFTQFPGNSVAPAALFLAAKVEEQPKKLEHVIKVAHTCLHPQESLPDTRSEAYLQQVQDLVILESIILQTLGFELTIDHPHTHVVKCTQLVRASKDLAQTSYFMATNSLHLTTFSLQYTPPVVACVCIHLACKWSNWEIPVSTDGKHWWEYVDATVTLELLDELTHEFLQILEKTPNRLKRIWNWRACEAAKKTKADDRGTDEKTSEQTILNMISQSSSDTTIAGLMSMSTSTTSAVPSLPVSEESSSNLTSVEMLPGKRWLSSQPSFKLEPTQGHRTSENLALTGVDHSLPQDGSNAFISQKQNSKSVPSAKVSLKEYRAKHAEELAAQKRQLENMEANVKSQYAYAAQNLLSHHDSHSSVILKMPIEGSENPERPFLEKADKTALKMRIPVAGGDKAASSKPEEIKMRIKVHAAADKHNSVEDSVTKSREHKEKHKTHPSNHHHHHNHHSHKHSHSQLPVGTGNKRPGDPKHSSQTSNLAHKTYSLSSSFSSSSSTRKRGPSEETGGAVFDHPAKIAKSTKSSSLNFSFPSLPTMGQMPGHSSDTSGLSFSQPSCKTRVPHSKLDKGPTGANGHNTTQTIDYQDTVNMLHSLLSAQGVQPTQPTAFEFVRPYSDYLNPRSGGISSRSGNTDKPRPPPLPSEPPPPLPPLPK
smiles,measurement,setting,value
CC(C)(C)c1cnc(CSc2cnc(NC(=O)C3CCN(CC(=O)NCCOCCOCCOCCNc4cccc5c4C(=O)N(C4CCC(=O)NC4=O)C5=O)CC3)s2)o1 (stereo not drawn) [Thal SNS 032],reduction of intended degrader target (CDK9),"CDK9 [1]; DLD-1, single agent, escalating doses, vs A1847 or MOLT4",did not reduce the intended degrader target to the extent observed with degrader-sensitive A1847 or MOLT4 cells
same,degradation efficiency of CDK9 on co-treatment with tariquidar,"CDK9 [1]; DLD-1, increasing doses plus tariquidar 0.1 μM",improved the degradation efficiency
same,cell viability of MDR1 overexpressing cells,[2],did not reduce cell viability to the extent of cancer cell lines expressing low or no detectable MDR1 protein
same,CDK9 protein levels and phosphorylation of RNA polymerase (S2),"CDK9 [3]; chronically exposed A1847 cells vs parental, increasing doses, 24 hours",did not inhibit cell viability or reduce CDK9 protein levels
same,acquired resistance (cell viability dose-response),"[4]; A1847 parental vs chronically exposed cells, escalating doses, 5 days",acquire resistance
same,cross-resistance to PROTACs targeting other proteins,[5],cross-resistant
same,MDR1 protein levels upregulated relative to parental cell lines by LFQ analysis,MDR1 (ABCB1),~2.5 fold
COc1cc2c(cc1OC)CN(CCc1ccc(NC(=O)c3cc(OC)c(OC)cc3NC(=O)c3cnc4ccccc4c3)cc1)CC2 [tariquidar],sensitivity of MZ1-resistant cells (cell viability),[6],increased sensitivity
same,degradation of CDK9 in degrader-resistant cells on MDR1 inhibition,"CDK9 [3]; tariquidar 0.1 μM, 24 hours, A1847 Thal-R",restored degradation of BET proteins or CDK9
same,drug synergy with LC-2,SW1463 cells,marginal synergy
same,PROTAC-mediated degradation of KRASG12C on combining with LC-2,"KRASG12C; SW1463, 48 hours",improved PROTAC-mediated degradation of KRASG12C reducing protein levels
same,phosphorylation of MEK and ERK on combining with LC-2,"KRASG12C; SW1463, 48 hours",reduced phosphorylation of MEK and ERK
same,sensitivity of degrader-resistant cells vs parental cells (cell viability),[4],more sensitive
same,MDR1 drug efflux pump activity (efflux of Rhodamine 123),"MDR1 [7]; A1847 dBET6-R, Thal-R or MZ1-R SUM159 cells compared to parental cells",reduced MDR1 drug efflux pump activity
same,colony formation with forced expression of Flag-MDR1,A1847 or SUM159 cells,could be blocked by tariquidar-treatment
same,drug synergy with LC-2,SW837 cells,marginal synergy
same,degradation of BET proteins in degrader-resistant cells on MDR1 inhibition,"[8]; tariquidar 0.1 μM, 24 hours, A1847 dBET6-R, SUM159 MZ1-R (maintained in PROTAC)",restored degradation of BET proteins or CDK9
CS(=O)(=O)CCNCc1ccc(-c2ccc3ncnc(Nc4ccc(OCc5cccc(F)c5)c(Cl)c4)c3c2)o1 [lapatinib],degradation of CDK9 by Thal SNS 032 on combined treatment,"CDK9 [1]; DLD-1, increasing doses of Thal SNS 032 plus the compound at 2 μM",improving degradation of CDK9
same,growth inhibition of colonies on combination with Thal SNS 032,"DLD-1 cells; compound at 2 μM, 14 days",enhancing growth inhibition of colonies
same,colony formation on co-treatment with dBET6,"DLD-1 cells; dBET6 0.1 μM plus the compound at 2 μM, 14-day period",sensitized DLD-1 cells to dBET6
same,MDR1 drug efflux activity (Rhodamine 123 efflux),MDR1 [9],reduced MDR1 drug efflux activity similar to tariquidar
same,degradation of CDK9 in degrader-resistant cell lines,"CDK9 [3]; A1847 Thal-R vs parental, 2 μM, 4 hours","resulted in degradation of BET proteins (FIG. 5, Panel G; FIG. 12, Panels E and F) or CDK9"
same,MEK inhibitor-induced ERBB3 and downstream AKT and RAF signaling,[10],could be blocked by lapatinib treatment
same,MDR1 drug efflux activity (Rhodamine 123 efflux),MDR1 [11],reduced MDR1 drug efflux activity similar to tariquidar-treatment
same,PROTAC-mediated degradation of KRASG12C on combining with LC-2,"KRASG12C; SW1463, 48 hours",improved PROTAC-mediated degradation of KRASG12C reducing protein levels
same,phosphorylation of MEK and ERK on combining with LC-2,"KRASG12C; SW1463, 48 hours",reduced phosphorylation of MEK and ERK
same,CRAF and AKT phosphorylation and apoptosis on combining with LC-2,"KRASG12C; SW1463, lapatinib 5 μM, 48 hours","uniquely reduced CRAF and AKT phosphorylation, as well as induced apoptosis"
same,apoptosis in degrader-resistant cell lines,[12],resulted in apoptosis similar to tariquidar treatment
same,reduction in concentrations of dBET6 required to degrade BRD4 when combined,BRD4 (BET proteins); combined with the compound at 2 μM,100 fold
same,dBET6-mediated degradation of BRD4 on combined treatment,BRD4 (BET proteins); increasing doses of dBET6 plus the compound at 2 μM,improved dBET6-mediated degradation of BRD4
same,sensitivity of degrader-resistant cells vs parental cells (cell viability),[4],more sensitive
same,MDR1 drug efflux activity (Rhodamine 123 efflux),"MDR1 [7]; A1847 dBET6-R or Thal-R cell lines, 2 μM",reduced MDR1 drug efflux activity similar to that observed with tariquidar
same,degradation of BET proteins in degrader-resistant cell lines,"[8]; A1847 dBET6-R or MZ1-R vs parental, 2 μM, 4 hours",resulted in degradation of BET proteins
same,tumor growth (tumor volume),LS513 xenografts,ineffective
C=C(F)C(=O)N1CCN(c2nc(OC[C@@H]3CCCN3CCCOCCC(=O)N[C@H](C(=O)N3C[C@H](O)C[C@H]3C(=O)NCc3ccc(-c4scnc4C)cc3)C(C)(C)C)nc3c2CCN(c2cccc4cccc(Cl)c24)C3)C[C@@H]1CC#N [LC-2],"KRASG12C protein levels, single agent","KRASG12C; SW1463 cells, 1 μM",had no impact on KRASG12C protein levels
same,sensitivity (colony formation),[13],intrinsic resistance
